Among the data in the supplement of paper PMC10307832 are relative viability values, retold here.

What all share (experiment): relative viability (nuclei count vs DMSO), 5 days (fraction); higher = more cells survive
Compound in test [1]: C=CCNC1=C2C[C@@H](C)C[C@H](OC)[C@H](O)[C@@H](C)/C=C(\C)[C@H](OC(N)=O)[C@@H](OC)/C=C\C=C(/C)C(=O)NC(=CC1=O)C2=O [17-AAG] + CC(=O)c1c(C)c2cnc(Nc3ccc(N4CCNCC4)cn3)nc2n(C2CCCC2)c1=O [Palbociclib] (partner 0.5 µM)
Put shortly:
(§1)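 Lung cancer cell lines were seeded in 1536-well plates and dosed by pin tool the next day, with either a single drug or a fixed anchor-drug dose combined with five library-drug doses (not always all listed) spaced in √10 steps. Five days later, one step fixed the cells and stained their nuclei (final 0.05% Triton X-100, 1% formaldehyde, 1 ug/ml Hoechst), and nuclei were counted on 4× images. Relative viability is the nuclei count in treated wells divided by the count in vehicle wells, and each value is the median of duplicate plates.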

Compound in test [2]: C=CCNC1=C2C[C@@H](C)C[C@H](OC)[C@H](O)[C@@H](C)/C=C(\C)[C@H](OC(N)=O)[C@@H](OC)/C=C\C=C(/C)C(=O)NC(=CC1=O)C2=O [17-AAG] + Cc1nc(Nc2ncc(C(=O)Nc3c(C)cccc3Cl)s2)cc(N2CCN(CCO)CC2)n1 [Dasatinib] (partner 0.075 µM)
The method in brief: as §1

Compound in test [3]: C=CCNC1=C2C[C@@H](C)C[C@H](OC)[C@H](O)[C@@H](C)/C=C(\C)[C@H](OC(N)=O)[C@@H](OC)/C=C\C=C(/C)C(=O)NC(=CC1=O)C2=O [17-AAG] + Cc1nc(NC(=O)N2CCC[C@H]2C(N)=O)sc1-c1ccnc(C(C)(C)C(F)(F)F)c1 [Alpelisib] (partner 2 µM)
Put shortly: as §1

Compound in test [4]: C=CCNC1=C2C[C@@H](C)C[C@H](OC)[C@H](O)[C@@H](C)/C=C(\C)[C@H](OC(N)=O)[C@@H](OC)/C=C\C=C(/C)C(=O)NC(=CC1=O)C2=O [17-AAG] + CC(C)C[C@H](NC(=O)[C@H](Cc1ccccc1)NC(=O)c1cnccn1)B(O)O [Bortezomib] (partner 0.002 µM)
Put shortly: as §1

For LK-2, the relative viability in test [1] (first compound 0.00128 µM) was 0.849; in test [1] (first compound 0.004048 µM), 0.64; in test [1] (first compound 0.0128 µM), 0.644; in test [1] (first compound 0.04048 µM), 0.236; in test [1] (first compound 0.128 µM), 0.0922; in test [2] (first compound 0.00128 µM) it was 0.285. For the same cell line, the relative viability in test [2] (first compound 0.004048 µM) was 0.396; in test [2] (first compound 0.0128 µM), 0.224; in test [2] (first compound 0.04048 µM) it was 0.157; in test [2] (first compound 0.128 µM), 0.116; in test [3] (first compound 0.00128 µM) it was 1.13; in test [3] (first compound 0.004048 µM), 0.998. Further, the relative viability in test [3] (first compound 0.0128 µM) stood at 1.28; in test [3] (first compound 0.04048 µM), 0.217; in test [3] (first compound 0.128 µM), 0.233.
NCI-H1944: the relative viability came to 0.331 in test [1] (first compound 0.00128 µM); 0.341 in test [1] (first compound 0.004048 µM); 0.3 in test [1] (first compound 0.0128 µM); 0.281 in test [1] (first compound 0.04048 µM); 0.151 in test [1] (first compound 0.128 µM); 0.198 in test [2] (first compound 0.00128 µM). In addition, the relative viability in test [2] (first compound 0.004048 µM) was found to be 0.199; in test [2] (first compound 0.0128 µM), 0.175; in test [2] (first compound 0.04048 µM) it was 0.158; in test [2] (first compound 0.128 µM), 0.15; in test [3] (first compound 0.00128 µM), 0.883; in test [3] (first compound 0.004048 µM), 0.88. In addition, the relative viability in test [3] (first compound 0.0128 µM) amounted to 0.85; in test [3] (first compound 0.04048 µM), 0.682; in test [3] (first compound 0.128 µM), 0.281.
As for NCI-H1650, the relative viability in test [1] (first compound 0.00128 µM) turned out to be 0.294; in test [1] (first compound 0.004048 µM) it was 0.187; in test [1] (first compound 0.0128 µM), 0.122; in test [1] (first compound 0.04048 µM), 0.115; in test [1] (first compound 0.128 µM), 0.0961; in test [4] (first compound 0.00128 µM) it was 0.217. Moreover, the relative viability in test [4] (first compound 0.004048 µM) was found to be 0.219; in test [4] (first compound 0.0128 µM), 0.181; in test [4] (first compound 0.04048 µM), 0.224; in test [4] (first compound 0.128 µM), 0.197; in test [2] (first compound 0.00128 µM), 0.267; in test [2] (first compound 0.004048 µM), 0.147. Moreover, the relative viability in test [2] (first compound 0.0128 µM) stood at 0.167; in test [2] (first compound 0.04048 µM) it was 0.199; in test [2] (first compound 0.128 µM) it was 0.148.
NCI-H522: the relative viability in test [1] (first compound 0.00128 µM) was found to be 1.02; in test [1] (first compound 0.004048 µM), 1.15; in test [1] (first compound 0.0128 µM), 0.896; in test [1] (first compound 0.04048 µM), 0.647; in test [1] (first compound 0.128 µM), 0.419; in test [2] (first compound 0.00128 µM) it was 0.822. Besides, the relative viability was determined as 0.799 in test [2] (first compound 0.004048 µM), 0.77 in test [2] (first compound 0.0128 µM), 0.632 in test [2] (first compound 0.04048 µM) and 0.443 in test [2] (first compound 0.128 µM).
As for SK-MES-1, the relative viability in test [1] (first compound 0.00128 µM) worked out at 0.347; in test [1] (first compound 0.004048 µM) it was 0.394; in test [1] (first compound 0.0128 µM), 0.281; in test [1] (first compound 0.04048 µM), 0.211; in test [1] (first compound 0.128 µM), 0.164; in test [2] (first compound 0.00128 µM), 0.358. Further, the relative viability in test [2] (first compound 0.004048 µM) is 0.249; in test [2] (first compound 0.0128 µM) it was 0.11; in test [2] (first compound 0.04048 µM) it was 0.106; in test [2] (first compound 0.128 µM), 0.101; in test [3] (first compound 0.00128 µM) it was 0.884; in test [3] (first compound 0.004048 µM), 0.842. Also, the relative viability in test [3] (first compound 0.0128 µM) worked out at 0.553; in test [3] (first compound 0.04048 µM) it was 0.144; in test [3] (first compound 0.128 µM) it was 0.152.
Regarding NCI-H2170, the relative viability in test [1] (first compound 0.00128 µM) stood at 0.397; in test [1] (first compound 0.004048 µM), 0.385; in test [1] (first compound 0.0128 µM), 0.324; in test [1] (first compound 0.04048 µM), 0.192; in test [1] (first compound 0.128 µM), 0.115; in test [2] (first compound 0.00128 µM) it was 0.623. Further, the relative viability in test [2] (first compound 0.004048 µM) came out at 0.663; in test [2] (first compound 0.0128 µM), 0.275; in test [2] (first compound 0.04048 µM), 0.123; in test [2] (first compound 0.128 µM) it was 0.111; in test [3] (first compound 0.00128 µM), 0.821; in test [3] (first compound 0.004048 µM), 0.723. The relative viability in test [3] (first compound 0.0128 µM) is 0.426; in test [3] (first compound 0.04048 µM), 0.244; in test [3] (first compound 0.128 µM), 0.178.
For the cell line NCI-H358, the relative viability stood at 0.171 in test [1] (first compound 0.00128 µM); 0.0944 in test [1] (first compound 0.004048 µM); 0.0747 in test [1] (first compound 0.0128 µM); 0.0677 in test [1] (first compound 0.04048 µM); 0.079 in test [1] (first compound 0.128 µM); 0.216 in test [2] (first compound 0.00128 µM). The relative viability worked out at 0.117 in test [2] (first compound 0.004048 µM); 0.0644 in test [2] (first compound 0.0128 µM); 0.0712 in test [2] (first compound 0.04048 µM); 0.0579 in test [2] (first compound 0.128 µM); 0.838 in test [3] (first compound 0.00128 µM); 0.556 in test [3] (first compound 0.004048 µM). Besides, the relative viability in test [3] (first compound 0.0128 µM) amounted to 0.126; in test [3] (first compound 0.04048 µM), 0.134; in test [3] (first compound 0.128 µM) it was 0.126.
As for NCI-H1563, the relative viability in test [4] (first compound 0.00128 µM) stood at 0.855; in test [4] (first compound 0.004048 µM) it was 0.702; in test [4] (first compound 0.0128 µM) it was 0.597; in test [4] (first compound 0.04048 µM), 0.573; in test [4] (first compound 0.128 µM) it was 0.469; in test [2] (first compound 0.00128 µM) it was 0.493. Moreover, the relative viability in test [2] (first compound 0.004048 µM) worked out at 0.504; in test [2] (first compound 0.0128 µM), 0.481; in test [2] (first compound 0.04048 µM), 0.42; in test [2] (first compound 0.128 µM) it was 0.324; in test [3] (first compound 0.00128 µM), 0.964; in test [3] (first compound 0.004048 µM), 0.853. For the same cell line, the relative viability came out at 0.616 in test [3] (first compound 0.0128 µM), 0.591 in test [3] (first compound 0.04048 µM) and 0.514 in test [3] (first compound 0.128 µM).
On to EBC-1, for which the relative viability was 0.536 in test [4] (first compound 0.00128 µM); 0.252 in test [4] (first compound 0.004048 µM); 0.185 in test [4] (first compound 0.0128 µM); 0.203 in test [4] (first compound 0.04048 µM); 0.165 in test [4] (first compound 0.128 µM); 0.828 in test [3] (first compound 0.00128 µM). The relative viability in test [3] (first compound 0.004048 µM) is 0.197; in test [3] (first compound 0.0128 µM), 0.186; in test [3] (first compound 0.04048 µM), 0.159; in test [3] (first compound 0.128 µM) it was 0.168.
Calu-6: the relative viability was found to be 1.06 in test [4] (first compound 0.00128 µM); 0.92 in test [4] (first compound 0.004048 µM); 0.896 in test [4] (first compound 0.0128 µM); 0.317 in test [4] (first compound 0.04048 µM); 0.183 in test [4] (first compound 0.128 µM); 0.959 in test [3] (first compound 0.00128 µM). The relative viability came out at 0.928 in test [3] (first compound 0.004048 µM), 0.915 in test [3] (first compound 0.0128 µM), 0.363 in test [3] (first compound 0.04048 µM) and 0.188 in test [3] (first compound 0.128 µM).
For the cell line HCC-44, the relative viability in test [1] (first compound 0.00128 µM) was 0.944; in test [1] (first compound 0.004048 µM), 1.01; in test [1] (first compound 0.0128 µM), 0.991; in test [1] (first compound 0.04048 µM), 0.978; in test [1] (first compound 0.128 µM), 0.914; in test [4] (first compound 0.00128 µM) it was 0.865. Further, the relative viability stood at 0.854 in test [4] (first compound 0.004048 µM); 0.903 in test [4] (first compound 0.0128 µM); 0.466 in test [4] (first compound 0.04048 µM); 0.142 in test [4] (first compound 0.128 µM); 0.792 in test [3] (first compound 0.00128 µM); 0.742 in test [3] (first compound 0.004048 µM). For the same cell line, the relative viability came to 0.656 in test [3] (first compound 0.0128 µM), 0.449 in test [3] (first compound 0.04048 µM) and 0.138 in test [3] (first compound 0.128 µM).
